Results on 4 compounds are retold here after patent US4118491A, “7-Acyl-3-(sulfaminoalkyl substituted tetrazolylthiomethyl)cephalosporins, antibacterial compositions containing them and methods of treating bacterial infections with them” (SmithKline Corporation, priority 1976, dated 1978).

≈ marks a conversion by molar mass, not a printed value. Like-named read-outs stand apart in the source and are kept apart here.

One experiment concerns E. coli HH 33779. Put plainly: MIC in vitro, E. coli HH 33779. The class given is cell-based. The conditions noted are these: for MIC: Escherichia coli. On the procedure: (§1) The compounds of Formula I have antibacterial activity against both Gram-positive and Gram-negative organisms. Minimum inhibitory concentrations (MIC's) range from 0.2 to >200 μg/ml in in vitro testing.

In experiment [1] the test system is E. coli SK 12140. Put plainly: MIC in vitro, E. coli SK 12140. Particulars: Escherichia coli. The class given is cell-based. On the procedure:
as §1

The next experiment relates to Salmonella ATCC 12176. Description: MIC in vitro, Salmonella ATCC 12176. It counts as cell-based. The conditions noted are these: ATCC12176, Salmonella ATCC 12176. How it is done:
as §1

The next experiment concerns S. aureus HH 127. Description: MIC in vitro, S. aureus HH 127. It counts as cell-based. The conditions noted are these: Staphylococcus aureus. How it is done:
as §1

For experiment [2], the system named is Serrati A marc. ATTC 13880. Description: MIC in vitro, Serrati A marc. ATTC 13880. The class given is cell-based. How it is done:
as §1

The test system of the next experiment is Shigella HH 117. Put plainly: MIC in vitro, Shigella HH 117. The class given is cell-based. Particulars: for MIC: Shigella, HH117, Shigella HH 117. How it is done: as §1
Experiment [3] relates to E. coli SK 12140. Put plainly: In vivo mouse protection, E. coli SK 12140. The conditions noted are these: Escherichia coli. On the procedure:
as §1

For another experiment, the system named is S. aureus SK 23390. Put plainly: MIC in vitro, S. aureus SK 23390. The conditions noted are these: Staphylococcus aureus. The class given is cell-based. How it is done: as §1
In experiment [4] the test system is Kleb. pneumo. SK 4200. Description: MIC in vitro, Kleb. pneumo. SK 4200. The class given is cell-based. On the procedure:
as §1

A further experiment has as its system Kleb. pneumo. SK 1200. Put plainly: MIC in vitro, Kleb. pneumo. SK 1200. The class given is cell-based. On the procedure:
as §1

Another experiment deals with Entero. cloacae HH 31254. Put plainly: MIC in vitro, Entero. cloacae HH 31254. It counts as cell-based. Particulars: Enterobacter cloacae. On the procedure: as §1
In the next experiment the test system is S. villaluz SK 70390. Put plainly: MIC in vitro, S. villaluz SK 70390. The class given is cell-based. On the procedure:
as §1

A further experiment relates to Strep. faecalis HH 34358. Description: MIC in vitro, Strep. faecalis HH 34358. The conditions noted are these: for MIC: Enterococcus faecalis, HH34358, Strep. faecalis HH 34358. It counts as cell-based. On the procedure: as §1
A further experiment has as its system Proteus morgani 179. Put plainly: MIC in vitro, Proteus morgani 179. It counts as cell-based. How it is done: as §1
The subject of experiment [5] is Entero. aerog. ATTC 13048. Description: MIC in vitro, Entero. aerog. ATTC 13048. The class given is cell-based. On the procedure:
as §1

Another experiment deals with Pseudo. aerug. HH 63. Description: MIC in vitro, Pseudo. aerug. HH 63. The class given is cell-based. How it is done: as §1
Experiment [6] deals with Kleb. pneumo. SK 4200. Put plainly: In vivo mouse protection, Kleb. pneumo. SK 4200. The conditions noted are these: sc, Kleb. pneumo. SK 4200, s.c.
The mark [7] stands for this setting: HH33779, E. coli HH 33779, read-out: MIC in vitro.
Setting [8] is: SK12140, E. coli SK 12140, read-out: MIC in vitro.
[9] abbreviates: HH127, S. aureus HH 127, read-out: MIC in vitro.
[10] abbreviates: SK12140, po, E. coli SK 12140, p.o.
[11] abbreviates: SK12140, sc, E. coli SK 12140, s.c.
Setting [12] is: SK23390, S. aureus SK 23390, read-out: MIC in vitro.
Setting [13] is: read-out: MIC in vitro, Kleb. pneumo. SK 1200.
Where [14] appears, read: HH31254, Entero. cloacae HH 31254, read-out: MIC in vitro.
The mark [15] stands for this setting: read-out: MIC in vitro, Entero. aerog. ATTC 13048.
Setting [16] is: Entero. aerog. ATTC 13048, read-out: MIC in vitro.

Consider `O=C(CSC(F)(F)F)NC1C(=O)N2C(C(=O)O)=C(CSc3nnnn3CCNS(=O)(=O)O)CSC12` (stereo not shown) [Compound 4, 7-trifluoromethylthioacetamido-3-[1-(2-sulfaminoethyl)tetrazol-5-ylthiomethyl]-3-cephem-4-carboxylic acid], for which the MIC stood at 1.6 µg/mL (≈ 2.76 µM) in the experiment with E. coli HH 33779 (setting [7]); 0.8 µg/mL (≈ 1.38 µM) in the experiment on E. coli SK 12140 [1] (setting [8]); 0.4 µg/mL (≈ 0.69 µM) against Salmonella ATCC 12176; 1.6 µg/mL (≈ 2.76 µM) with S. aureus HH 127 (setting [9]); 100 µg/mL (≈ 173 µM) in experiment [2]; 0.8 µg/mL (≈ 1.38 µM) against Shigella HH 117. Moreover, the MIC in the experiment with S. aureus SK 23390 (setting [12]) was 1.6 µg/mL (≈ 2.76 µM); in the experiment on Kleb. pneumo. SK 4200 [4] it was 0.8 µg/mL (≈ 1.38 µM); in the experiment with Kleb. pneumo. SK 1200 (setting [13]), 0.2 µg/mL (≈ 0.345 µM); in the experiment on Entero. cloacae HH 31254 (setting [14]), 1.6 µg/mL (≈ 2.76 µM); in the experiment with S. villaluz SK 70390, over 200 µg/mL; against Strep. faecalis HH 34358, 100 µg/mL (≈ 173 µM). Moreover, the MIC against Proteus morgani 179 was over 200 µg/mL; in experiment [5] (setting [15]), 6.3 µg/mL (≈ 10.9 µM); with Pseudo. aerug. HH 63, over 200 µg/mL. Moreover, the ED50 with E. coli SK 12140 [3] (setting [10]) amounted to 50 mg/kg; with E. coli SK 12140 [3] (setting [11]) it was 1.82 mg/kg.

As to `O=C(O)C1=C(CSc2nnnn2CCNS(=O)(=O)O)CSC2C(NC(=O)[C@H](O)c3ccccc3)C(=O)N12` (stereo partly drawn) [Compound 1, 7-D-mandelamido-3-[1-(2-sulfaminoethyl)tetrazol-5-ylthiomethyl]-3-cephem-4-carboxylic acid], the MIC in vitro worked out at 1.6 µg/mL (≈ 2.8 µM) in the experiment on E. coli HH 33779 (E. coli HH 33779); 0.2 µg/mL (≈ 0.35 µM) in the experiment on Shigella HH 117 (Shigella HH 117); 0.8 µg/mL (≈ 1.4 µM) in the experiment with Kleb. pneumo. SK 4200 [4]; 0.2 µg/mL (≈ 0.35 µM) in the experiment on Kleb. pneumo. SK 1200 (Kleb. pneumo. SK 1200); 50 µg/mL (≈ 87.5 µM) in the experiment with Strep. faecalis HH 34358 (Strep. faecalis HH 34358); 3.1 µg/mL (≈ 5.42 µM) against Proteus morgani 179. Besides, the MIC with E. coli HH 33779 (setting [7]) was determined as 3.1 µg/mL (≈ 5.42 µM); with E. coli SK 12140 [1] (setting [8]), 0.8 µg/mL (≈ 1.4 µM); with S. aureus HH 127 (HH127, read-out: MIC in vitro) it was 3.1 µg/mL (≈ 5.42 µM); in experiment [2], 100 µg/mL (≈ 175 µM); against Shigella HH 117, 0.4 µg/mL (≈ 0.7 µM); in the experiment with S. aureus SK 23390 (setting [12]) it was 0.8 µg/mL (≈ 1.4 µM). The MIC was found to be 1.6 µg/mL (≈ 2.8 µM) in the experiment with Kleb. pneumo. SK 4200 [4]; 0.4 µg/mL (≈ 0.7 µM) in the experiment with Kleb. pneumo. SK 1200 (setting [13]); 1.6 µg/mL (≈ 2.8 µM) with Entero. cloacae HH 31254 (setting [14]); 100 µg/mL (≈ 175 µM) with Strep. faecalis HH 34358; 50 µg/mL (≈ 87.5 µM) in [5] (setting [16]); 6.3 µg/mL (≈ 11 µM) in experiment [5] (setting [15]). This compound also yielded an MIC with Pseudo. aerug. HH 63 of over 200 µg/mL. Moreover, the 50% effective dose (ED50) in the experiment with Kleb. pneumo. SK 4200 [6] came out at 0.46 mg/kg; in the experiment with E. coli SK 12140 [3] (setting [10]) it was 50 mg/kg; in the experiment with E. coli SK 12140 [3] (setting [11]), 0.46 mg/kg.

Take `O=C(Cn1cnnn1)NC1C(=O)N2C(C(=O)O)=C(CSc3nnnn3CCNS(=O)(=O)O)CSC12` (stereo not shown) [Compound 3, 7-(1-tetrazolylacetamido)-3-[1-(2-sulfaminoethyl)tetrazol-5-ylthiomethyl]-3-cephem-4-carboxylic acid]: the MIC in the experiment with E. coli HH 33779 (HH33779, read-out: MIC in vitro) amounted to 0.8 µg/mL (≈ 1.46 µM); with E. coli SK 12140 [1] (setting [8]), 0.8 µg/mL (≈ 1.46 µM); in the experiment on Salmonella ATCC 12176 it was 0.4 µg/mL (≈ 0.731 µM); in the experiment on S. aureus HH 127 (HH127, read-out: MIC in vitro) it was 3.1 µg/mL (≈ 5.66 µM); in [2] it was 200 µg/mL (≈ 365 µM); in the experiment on Shigella HH 117, 0.4 µg/mL (≈ 0.731 µM). In addition, the MIC in the experiment with S. aureus SK 23390 (setting [12]) is 3.1 µg/mL (≈ 5.66 µM); against Kleb. pneumo. SK 4200 [4] it was 0.8 µg/mL (≈ 1.46 µM); with Kleb. pneumo. SK 1200 (setting [13]), 0.4 µg/mL (≈ 0.731 µM); with Entero. cloacae HH 31254 (HH31254, read-out: MIC in vitro), 0.8 µg/mL (≈ 1.46 µM); in the experiment with S. villaluz SK 70390, over 200 µg/mL; with Strep. faecalis HH 34358 it was 50 µg/mL (≈ 91.3 µM). Also, the results for the MIC (against Proteus morgani 179; in experiment [5] (setting [15]); with Pseudo. aerug. HH 63) were 200 µg/mL (≈ 365 µM), 3.1 µg/mL (≈ 5.66 µM) and over 200 µg/mL, respectively. In the experiment with E. coli SK 12140 [3] (setting [11]), this compound displayed an ED50 of 1.56 mg/kg.

On to `O=C(Cc1cccs1)NC1C(=O)N2C(C(=O)O)=C(CSc3nnnn3CCNS(=O)(=O)O)CSC12` (stereo not shown) [Compound 2, 7-(2-thienylacetamido)-3-[1-(2-sulfaminoethyl)tetrazol-5-ylthiomethyl]-3-cephem-4-carboxylic acid], for which the MIC was 12.5 µg/mL (≈ 22.3 µM) with E. coli HH 33779 (setting [7]); 3.1 µg/mL (≈ 5.52 µM) with E. coli SK 12140 [1] (SK12140, read-out: MIC in vitro); 12.5 µg/mL (≈ 22.3 µM) in the experiment with Salmonella ATCC 12176; 1.6 µg/mL (≈ 2.85 µM) in the experiment with S. aureus HH 127 (setting [9]); over 200 µg/mL in experiment [2]; 0.4 µg/mL (≈ 0.712 µM) in the experiment on S. aureus SK 23390 (SK23390, read-out: MIC in vitro). In addition, the minimum inhibitory concentration (MIC) against Kleb. pneumo. SK 4200 [4] was 3.1 µg/mL (≈ 5.52 µM); with Kleb. pneumo. SK 1200 (Kleb. pneumo. SK 1200, read-out: MIC in vitro), 0.8 µg/mL (≈ 1.42 µM); with Entero. cloacae HH 31254 (setting [14]), 6.3 µg/mL (≈ 11.2 µM); with Strep. faecalis HH 34358, 12.5 µg/mL (≈ 22.3 µM); in the experiment on Proteus morgani 179 it was over 200 µg/mL; in experiment [5] (setting [16]) it was 25 µg/mL (≈ 44.5 µM). In addition, the MIC with Pseudo. aerug. HH 63 is over 200 µg/mL. Also, the ED50 in the experiment on E. coli SK 12140 [3] (setting [10]) was over 50 mg/kg; in the experiment on E. coli SK 12140 [3] (setting [11]), 1.02 mg/kg.

The MIC is the smallest concentration in the dilution series that meets the test's criterion for growth inhibition. A word on the ED50: it is the dose that gives a 50% effect, or the effect in half of the subjects.
